In data set [1] the target is T1, Mcl-1/Bim interaction, recombinant human Mcl-1 (171-327) (Homo sapiens, UniProt Q07820).
T1 construct: made in house
Put plainly: Cell free Mcl-1: Bim Affinity Assay (Mcl-1 HTRF). It is filed as binding. As to conditions: TR-FRET, 0.1 nM Mcl-1 (171-327), 0.05 nM biotin-Bim (51-76). The method, boiled down:
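Displacement of biotinylated Bim 51-76 peptide is followed by TR-FRET. Incubation runs overnight. Duplicate points are fitted with a four-parameter sigmoid to yield IC50.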
(In TR-FRET formats the signal depends on donor and acceptor labels being close together.)

The test system of data set [2] is OPM-2 human multiple myeloma cell line. Put plainly: Cell Viability Assay (OPM-2 10 FBS). As to conditions: Homo sapiens, OPM-2, 16 h, OPM-2 cells, 16 h, CellTiter-Glo. It is filed as cell-based. The method, boiled down: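 OPM-2 myeloma cells, 3000/well in medium with 10% FBS, exposed to serially diluted compounds for 16 h at 37° C./5% CO2. Viability read by CellTiter-Glo luminescence; IC50 from 4-parameter logistic fit.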

For data set [3] the following is noted: from C=CCCCCS(=O)(=O)NC(=O)c1ccc2c(c1)N(C[C@@H]1CC[C@H]1[C@H](O)/C=C/CCC)C[C@@]1(CCCc3cc(Cl)ccc31)CO2; rcm bond; 17-membered ring; Hoveyda-Grubbs II; AcOH; 5.2 mM.
[4] abbreviates: from C=CC[C@H](C)NS(=O)(=O)NC(=O)c1ccc2c(c1)N(C[C@@H]1CC[C@H]1[C@@H](O)C=C)C[C@@]1(CCCc3cc(Cl)ccc31)CO2, rcm bond, 16-membered ring, Hoveyda-Grubbs II, AcOH.

Where two headings read alike, the source gives them in different places.

T1 sequence (Q07820 171-327): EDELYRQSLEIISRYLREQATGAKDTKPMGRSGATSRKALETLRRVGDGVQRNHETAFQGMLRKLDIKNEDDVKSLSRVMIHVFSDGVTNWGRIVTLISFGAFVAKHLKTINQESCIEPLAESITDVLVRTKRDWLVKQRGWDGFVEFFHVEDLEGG

Usually IC50 stands for the point on the concentration scale where inhibition reaches its midpoint. In the case of `CCN1CC/C=C/[C@H](O)[C@@H]2CC[C@H]2CN2C[C@@]3(CCCc4cc(Cl)ccc43)COc3ccc(cc32)C(=O)NS1(=O)=O` (single isomer, unassigned) [Example 29], the ring closure, yield after HPLC (from C=CCCN(CC)S(=O)(=O)NC(=O)c1ccc2c(c1)N(C[C@@H]1CC[C@H]1[C@@H](O)/C=C/CCC)C[C@@]1(CCCc3cc(Cl)ccc31)CO2, rcm bond, 16-membered ring, Hoveyda-Grubbs II, AcOH, 2.9 mM) turned out to be 22.2%. In addition, the IC50 turned out to be 0.00066 µM in data set [1] and 1.28 µM in data set [2].
Compound “(1S,3′R,6′R,7′S,8′E,11′S,12′R)-6-chloro-7′-hydroxy-12′-(2-methoxyethyl)-11′-methyl-3,4-dihydro-2H,15′H-spiro[naphthalene-1,22′-[20]oxa[13]thia[1,14]diazatetracyclo[14.7.2.0^3,6.0^19,24]pentacosa [8,16,18,24]tetraen]-15′-one 13′,13′-dioxide or [...] or (1S,3′R,6′R,7′S,8′E,11′R,12′R)-6-chloro-7′-hydroxy-12′-(2-methoxyethyl)-11′-methyl-3,4-dihydro-2H,15′H-spiro[naphthalene-1,22′-[20]oxa[13]thia[1,14]diazatetracyclo[14.7.2.0^3,6.0^19,24]pentacosa[8,16,18,24]tetraen]-15′-one 13′,13′-dioxide” came in with a ring closure, yield after HPLC (rcm bond, 16-membered ring, Hoveyda-Grubbs II, 1,2-dichloroethane, 3.67 mM, 50.0 °C) of 8.2%.
In the case of `C=CCCC(C#N)S(=O)(=O)NC(=O)c1ccc2c(c1)N(C[C@@H]1CC[C@H]1[C@@H](O)/C=C/CCC)C[C@@]1(CCCc3cc(Cl)ccc31)CO2` (single isomer, unassigned), the ring closure, yield after HPLC (the molecule shown is the open-chain precursor, rcm bond, 16-membered ring, Hoveyda-Grubbs II (20 mol%), reduced pressure, AcOH, 2.9 mM, […]) turned out to be 2.58%.
As for “(1S,3′R,6′R,7′S,8′E)-6-chloro-7′-hydroxy-9′-bromo-3,4-dihydro-2H,15′H-spiro[naphthalene-1,22′-[20]oxa[13]thia[1,14]diazatetracyclo[14.7.2.0^3,6.0^19,24]pentacosa[8,16,18,24]tetraen]-15′-one 13′,13′-dioxide or (1S,3′R,6′R,7′R,8′E)-6-chloro-7′-hydroxy-9′-bromo-3,4-dihydro-2H,15′H-spiro[naphthalene-1,22′-[20]oxa[13]thia[1,14]diazatetracyclo[14.7.2.0^3,6.0^19,24]pentacosa[8,16,18,24]tetraen]-15′-one 13′,13′-dioxide”, the ring closure, yield after HPLC (amide bond, 16-membered ring, EDC/DMAP/TEA, DCM, 5.0 mM, […]) was 13%.
For `C[C@H]1C/C=C/[C@H](O)[C@@H]2CC[C@H]2CN2C[C@@]3(CCCc4cc(Cl)ccc43)COc3ccc(cc32)C(=O)NS(=O)(=O)N1` [Example 61, (1S,3′R,6′R,7′S,8′E,11′S)-6-chloro-7′-hydroxy-11′-methyl-3,4-dihydro-2H,15′H-spiro[naphthalene-1,22′-[20]oxa[13]thia[1,12,14]triazatetracyclo[14.7.2.0^3,6.0^19,24]pentacosa[8,16,18,24]tetraen]-15′-one 13,13′-dioxide], under setting [4], the ring closure, yield after HPLC came out at 50.1%. In addition, the IC50 is 0.000241 µM in data set [1] and 0.278 µM in data set [2].
Under “from C[C@H](C/C=C/[C@H](O)[C@]1(C)CC[C@H]1CN1C[C@@]2(CCCc3cc(Cl)ccc32)COc2ccc(C(=O)O)cc21)S(N)(=O)=O, amide bond, 15-membered ring, EDC/DMAP, DCM, 2.0 mM, 16.0 h”, `C[C@@H]1CC=C[C@H](O)[C@]2(C)CC[C@H]2CN2C[C@@]3(CCCc4cc(Cl)ccc43)COc3ccc(cc32)C(=O)NS1(=O)=O` had a ring closure, yield after HPLC of 7.1%.
Turning to “(1S,3′R,6′R,11′S)-6-chloro-11′-methyl-3,4-dihydro-2H,7′,14′H-spiro[naphthalene-1,21′-[19]oxa[12]thia[1,13]diazatetracyclo[13.7.2.0^3,6.0^18,23]tetracosa [15,17,23]triene]-7′,14′-dione 12′,12′-dioxide”, the ring closure, yield after HPLC (rcm bond, 15-membered ring) stood at 4.8%.
As to `C[C@H]1C/C=C\[C@H](O)[C@@H]2CC[C@H]2CN2C[C@@]3(CCCc4cc(Cl)ccc43)COc3ccc(cc32)C(=O)NS(=O)(=O)N1` (single isomer, unassigned) [Example 62], the ring closure, yield after HPLC under setting [4] was 2.1%. For the same compound, the values for the half-inhibitory concentration (IC50) in data set [1] and in data set [2] were 0.000266 µM and 0.362 µM, respectively.
Under “rcm bond, 16-membered ring, Hoveyda-Grubbs II (20 mol%), reduced pressure, AcOH, 2.9 mM, […]”, “(1S,3′R,6′R,7′S,8′E,12′R)-12′-(2-(tert-butylsulfonyl)ethyl)-6-chloro-7′-hydroxy-3,4-dihydro-2H,15′H-spiro[naphthalene-1,22′-[20]oxa[13]thia[1,14]diazatetracyclo[14.7.2.0^3,6.0^19,24]pentacosa[8,16,18,24]tetraen]-15′-one 13′,13′-dioxide or (1S,3′R,6′R,7′S,8′E,12′S)-12′-(2-(tert-butylsulfonyl)ethyl)-6-chloro-7′-hydroxy-3,4-dihydro-2H,15′H-spiro[naphthalene-1,22′-[20]oxa[13]thia [1,14]diazatetracyclo[14.7.2.0^3,6.0^19,24]pentacosa[8,16,18,24]tetraen]-15′-one 13′,13′-dioxide” yielded a ring closure, yield after HPLC of 6.75%.
Regarding `O=C1NS(=O)(=O)CCCC/C=C/[C@@H](O)[C@@H]2CC[C@H]2CN2C[C@@]3(CCCc4cc(Cl)ccc43)COc3ccc1cc32` [Example 227, (1S,3′R,6′R,7′R,8′E)-6-chloro-7′-hydroxy-3,4-dihydro-2H,16′H-spiro[naphthalene-1,23′-[21]oxa[14]thia[1,15]diazatetracyclo[15.7.2.0^3,6.0^20,25]hexacosa[8,17,19,25]tetraen]-16′-one 14′,14′-dioxide], in data set [3], the ring closure, isolated yield is 59%. Also, the IC50 was determined as 0.0328 µM in data set [1] and 21.4 µM in data set [2].
For the setting “from NS(=O)(=O)[C@H]1CCC[C@@H](/C=C/[C@H](O)[C@@H]2CC[C@H]2CN2C[C@@]3(CCCc4cc(Cl)ccc43)COc3ccc(C(=O)O)cc32)C1, amide bond, 16-membered ring, EDC/DMAP, DCM, 2.0 mM, 16.0 h”, `O=C1NS(=O)(=O)[C@H]2CCC[C@@H](C=C[C@H](O)[C@@H]3CC[C@H]3CN3C[C@@]4(CCCc5cc(Cl)ccc54)COc4ccc1cc43)C2` (single isomer, unassigned) came in with a ring closure, yield after HPLC of 4.7%.
For the compound `N#CC[C@@H]1CC/C=C/[C@H](O)[C@@H]2CC[C@H]2CN2C[C@@]3(CCCc4cc(Cl)ccc43)COc3ccc(cc32)C(=O)NS1(=O)=O`, where the note is “from C=CC/C=C/[C@H](O)[C@@H]1CC[C@H]1CN1C[C@@]2(CCCc3cc(Cl)ccc32)COc2ccc(C(=O)NS(=O)(=O)[C@@H](CC#N)CCC=C)cc21, rcm bond, 16-membered ring, Hoveyda-Grubbs II (20 mol%), reduced pressure, AcOH, 2.89 mM, […]”, the ring closure, yield after HPLC amounted to 3.43%.

Source of the values: patent US12091425B2 (AMGEN INC., priority 2016, dated 2024).
